Results: PubChem BioAssay AID449762 (Southern Research Specialized Biocontainment Screening …, 2010)
Inconclusive results are not listed.

Test system: M. tuberculosis H37Rv growth inhibition, 7H9 media
Assay: M. tuberculosis growth inhibition, HTS (AID 449762);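 also: bacterial growth assessed after seven days of incubation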
Details: for IC90: measured here: IC90 growth inhibition

| Structure (SMILES) | IC50 [µM] | IC90 [µM] |
| --- | --- | --- |
| Cc1cc(Br)ccc1NC(=O)c1cnc(N2CCN(c3ccccn3)CC2)c2ccccc12 | 1.24 | 3.49 |
| CN1C(=O)/C(=C/c2cccc(Cl)c2)Sc2ccc(C(=O)N3CCCC3)cc21 | 17.1 | 31 |
| Cc1cc2c(N=O)c(NO)ccc2[nH]1 | 10.3 | 15 |
| O=C(Nc1ccccc1)C1=C[C@@H](C2CCCCC2)C[C@@H](OCc2ccc(CO)cc2)O1 | 45 | 50.2 |
| CCOc1cc(CNCCCN2CCOCC2)cc(Br)c1OCC(=O)Nc1cccc(C(F)(F)F)c1 | 22.1 | 31.7 |
| COc1ccc([C@H]2CC(=O)C=C(c3ccc4c5c(cccc35)CC4)C2)cc1 | 11 | 23 |
| Cc1ccc(C)c(N2CCN(C(=S)Nc3ccc4nc(N5CCN(C)CC5)cc(C)c4c3)CC2)c1 | 38.7 | 50.9 |
| CSc1ccc(CNC(=O)C2Cc3cc(S(=O)(=O)N4CCCCC4)ccc3N2C(C)=O)cc1 (stereo not given) | 46.4 | > 50 |
| CCOC(=O)CSCC(=O)N1CCC(Cc2ccccc2)CC1 | 5.35 | 19.6 |
| Cn1ccnc1C(=O)C1CCCN(Cc2cn[nH]c2-c2ccc(-c3ccccc3)cc2)C1 (stereo not given) | 76 | 91.7 |
| COc1cc(C)ccc1S(=O)(=O)N1CCN(C23CC4CC(CC(C4)C2)C3)CC1 | 28.8 | 44 |
| O=C(CCc1nnc(CCCc2ccccc2)o1)NCCCC1CCCC1 | 10.5 | 23.1 |
| Brc1cccc2sc(N3CCN(c4ccccc4)CC3)nc12 | 44.5 | > 100 |
| O=C(Nc1cccc(-c2nc3ccccc3s2)c1)c1cc(-n2cnnc2)ccc1Cl | 11.6 | 13.1 |
| O=[N+]([O-])c1ccc(O)c(-c2cc(C(F)(F)F)nc(-c3ccccc3)n2)c1 | 22.2 | 23.3 |
| O=C(C=C=Nc1ccccc1)C(=O)N=C=Cc1ccccc1 | 5.31 | 13.1 |
| CNC[C@@H](Cc1ccccc1)NC[C@@H](CC1CCCCC1)NCCCc1ccccc1 | 7.96 | 9.49 |
| CCOC(=O)C1=C(C)Nc2nc(SCC(=O)OC)nn2C1c1cc(F)cc(F)c1 (stereo not given) | 5.06 | 7.95 |
| COc1ccccc1C(=O)NC(=Nc1nc2ccccc2o1)NC(=O)c1ccccc1OC | 96.3 | > 100 |
| Cc1cc(NC(=O)c2cc(-c3ccncc3)nc3c(C)cccc23)no1 | 46.5 | > 100 |
| Nc1ccc(-c2nc3ccc(-c4nc5ccccc5o4)cc3[nH]2)cc1 | 31.4 | 41.6 |
| CC1CN(C(=S)SCC(=O)c2ccc([N+](=O)[O-])cc2)CC(C)O1 (stereo not given) | 27 | > 100 |

| Structure (SMILES) | IC50 [µM] | IC90 [µM] |
| --- | --- | --- |
| Cc1ccc(C2C3=C(CC(C)(C)CC3=O)N=C3c4ccccc4C(=O)C32)cc1 (stereo not given) | 66.4 | 90.7 |
| O=C1NCC(c2ccccc2)C1C(=O)N/N=C\c1ccc(-c2ccc(Cl)c(Cl)c2)o1 (stereo not given) | 91 | > 100 |
| C/C(CC(=O)Nc1ccc2c(c1)OCCO2)=N\NC(=O)c1ccccc1F | 6.94 | > 100 |
| CC[C@H](C)[C@@H]1O[C@@]2(C=CC1C)CC1C[C@@H](CC=C(C)C(O[C@H]3CC(OC)C(O[C@H]4CC(OC)C(O)C(C)O4)C(C)O3)C(C)C=CC=C3CO[C@@H]4C(O)C(C)=C[C@@H](C(=O)O1)[C@]34O)O2 (stereo not given in full) | 12.7 | 18.1 |
| CC/C(C)=N/NC(=S)NCc1ccco1 | 47.5 | 53.8 |
| OC(CNCC(c1ccc(Cl)cc1Cl)c1c[nH]c2ccccc12)c1ccccc1 (stereo not given) | 16.9 | 23.4 |
| CCCOc1cccc(C(=O)NC(=S)Nc2ccc(N3CCN(C)CC3)cc2)c1 | – | > 100 |
| Cc1cncn1CCc1nc2c3ccccc3nc(SCC(=O)Nc3cccc(Cl)c3)n2n1 | 20.9 | 27.9 |
| Cc1ccc(NC(=O)COc2ccc(-n3ccnc3)cc2)cc1Cl | 24.8 | 28.8 |
| Cc1ccc(NC(=O)Cn2ccsc2=N)c([N+](=O)[O-])c1 | 5.48 | 12.7 |
| CCOC(=O)c1ccc(N=Cc2nc3ccccc3n2C)cc1 | 63.5 | > 100 |
| CN(CCCC1CCCC1)C(=O)CCc1nnc(-c2ccccc2)o1 | 7.31 | 20.1 |
| CCC1(c2ccccc2)ON(c2c(Br)cccc2Br)C1=O (stereo not given) | 16.9 | 50.4 |
| CN(C)CCCN1c2ccccc2Sc2ccc(Cl)cc21 | 51.6 | 59 |
| Cn1nnnc1Sc1ncnc2scc(-c3cc4ccccc4o3)c12 | 0.78 | 7 |
| CCOC(=O)c1ccc(Oc2nc(NC(C)(C)C)nc(N(C)C)n2)cc1 | 21.3 | 82.2 |
| COc1ccc(/C=C/CN2CCC(CO)(Cc3ccccc3Cl)CC2)cc1 | 23.1 | 26.6 |
| CCOc1cc(-c2c(C#N)c(=O)[nH]c3c2c(C)nn3-c2ccc(F)cc2)ccc1O | 1.21 | 4.98 |
| Cc1ccccc1C(=O)Nc1ccc(N(C)C)c2ccccc12 | 16.6 | > 100 |
| c1ccc(-c2nc3c(ccc4ccccc43)[nH]2)nc1 | 6.75 | 20.3 |
| c1ccc2nc(-c3ccc(-n4ccnc4)cc3)ccc2c1 | 23.5 | 25.9 |
